The test system of test [1] is Staphylococcus aureus. Nature of the test: Examination of sterilization treatment: antimicrobial activity test after EOG or γ-ray sterilization. It is filed as cell-based. Conditions: 1.25% by mass. The procedure:
A protamine hydrochloride powder and a protamine sulfate powder were respectively enclosed in sterilization bags (roll bag for IDS, manufactured by Hogy Medical Co., Ltd.). For a control group (not treated), the sterilization treatment was not performed, and the rest was subjected to the EOG sterilization (EOG concentration: 20%, sterilization time: 4 hours, temperature: 55° C.) and the γ-ray sterilization (30 kGy). The standard cloth was cut into an appropriate size with a mass of 0.40 g±0.05 g. Each of the test powders (protamine hydrochloride and protamine sulfate) was dissolved in sterile water, separately, and then the resultant was filtered. […] A Staphylococcus aureus suspension was inoculated by 0.2 mL each in separate several portions on each test piece. Immediately after the inoculation, 20 mL of a saline for washing out was added to some vials for washing out Staphylococcus aureus cells, and then a viable cell count was measured. The rest of the vials without washing-out was cultured at 37° C.±2° C. for 18 to 24 hours. After the cultivation, 20 mL of a saline for washing out was added to each vial for washing out Staphylococcus aureus cells, and then a viable cell count was measured.

Test [2] deals with Staphylococcus aureus. Nature of the test: Antimicrobial activity test (JIS L 1902:2015 / ISO 20743) on standard cloth. It is filed as cell-based. Conditions: cultured 37° C. for 18 to 24 hours. From the text:
The antimicrobial activity of the protamine component can be evaluated based on an antimicrobial activity value described in “JIS L 1902:2015 Textiles—Determination of antibacterial activity and efficacy of textile products” (ISO 20743), and when a target material has an antimicrobial activity value of 2.0 or more, it can be determined to have the antimicrobial activity.
A standard cloth was cut into an appropriate size with a mass of 0.40 g±0.05 g. Sterile water (a control sample) and each of the test sample solutions (protamine hydrochloride: manufactured by Maruha Nichiro Corporation, protamine sulfate: manufactured by Maruha Nichiro Corporation, silver sulfate: manufactured by Wako Pure Chemical Industries Ltd.) were prepared and filtered, separately.
A Staphylococcus aureus suspension was inoculated by 0.2 mL each in separate several portions on each test piece. Immediately after the inoculation, 20 mL of a saline for washing out was added to some vials for washing out Staphylococcus aureus cells, and then a viable cell count was measured. The rest of the vials without washing-out was cultured at 37° C.±2° C. for 18 to 24 hours. After the cultivation, 20 mL of a saline for washing out was added to each vial for washing out Staphylococcus aureus cells, and then a viable cell count was measured. In accordance with the formula (1), an antimicrobial activity value was calculated, and a sample having an antibacterial activity value of 2.0 or more was determined as having the antimicrobial activity.
A=(log Ct−log C0)−(log Tt−log T0) Formula (1)
A: antibacterial activity value log Ct: arithmetic average common logarithm of viable cell count in a control sample obtained after cultivation for 18 to 24 hours log C0: arithmetic average common logarithm of viable cell count in a control sample obtained immediately after inoculation log Tt: arithmetic average common logarithm of viable cell count in a test sample obtained after cultivation for 18 to 24 hours log T0: arithmetic average common logarithm of viable cell count in a test sample obtained immediately after inoculation

Test [3] relates to full-thickness skin incision wound. Description: Healing test, full-thickness skin incision wound. In kind it is in vivo, rat. The settings on record: 1.25% by mass on substrate, changed daily, day 1 to 4 of observation, compared with control group and silver sulfate group. The procedure: A substrate (Jintan Medicare sterile pad T, manufactured by Morishita Jintan Co., Ltd.) was prepared, and each of filtered test solutions (protamine hydrochloride, protamine sulfate and silver sulfate) was homogeneously applied to each substrate to obtain a solid content of the active ingredient of 1.25% by mass. In a flank region on either side of an eight-week-old BrlHan: WIST@Jcl (GALAS) rat (four rats used in each test group), a full-thickness skin incision wound with a size of 2.5 cm×2.5 cm was created.
The substrate and the dressing were changed once every day, the incision wound was photographed with a digital camera at the time of the change, and then, an area of the wound was obtained by using image analysis software (Image J, National Institutes of Health, USA). Assuming that the area of the wound on the day of creating the wound (day 0 of observation) was 100%, an area ratio (%) of the wound on each observation date was obtained.

Where [4] appears, read: EOG Sterilization (20%, 4 hours, 55° C.).
Where [5] appears, read: 0.125% by mass on standard cloth.
[6] abbreviates: 1.25% by mass on standard cloth.

“Also recorded” adds a separate entry of the source.

For the molecule protamine hydrochloride, the “Antibacterial Activity Value” in the test with Staphylococcus aureus [1] (setting [4]), with Staphylococcus aureus [1] (Not Treated), with Staphylococcus aureus [1] (γ-ray Sterilization (30 kGy)), in the test with Staphylococcus aureus [2] (setting [5]) and with Staphylococcus aureus [2] (setting [6]) was at least 2.0 in each case. Besides, in test [3] (hydrochloride), the “wound healing accelerating effect (area ratio of the wound)” value is “exhibit a wound healing accelerating effect; also recorded: an effect of accelerating wound healing was observed”.
For protamine sulfate, the “Antibacterial Activity Value” in the test on Staphylococcus aureus [1] (setting [4]), in the test with Staphylococcus aureus [1] (Not Treated), in the test on Staphylococcus aureus [1] (γ-ray Sterilization (30 kGy)), in the test with Staphylococcus aureus [2] (setting [5]) and in the test on Staphylococcus aureus [2] (setting [6]) was at least 2.0 in each case. For the same molecule, the “wound healing accelerating effect (area ratio of the wound)” value in test [3] is reported as “exhibit a wound healing accelerating effect; also recorded: an effect of accelerating wound healing was observed”.
For the molecule `O=S(=O)([O-])[O-].[Ag+].[Ag+]` [Silver Sulfate, silver sulfate, reference compound], the “Antibacterial Activity Value” with Staphylococcus aureus [2] (setting [5]) and in the test on Staphylococcus aureus [2] (setting [6]) was at least 2.0 each time. Also, in test [3], the “wound healing accelerating effect (area ratio of the wound)” value was “the wound healing accelerating effect was found in protamine hydrochloride and protamine sulfate alone”.

The values above are taken from patent US20200038479A1, “WOUND HEALING AGENT HAVING ANTIMICROBIAL ACTIVITY AND WOUND HEALING ACCELERATING ACTIVITY” (MARUHA NICHIRO CORPORATION, priority 2016, published 2020).
